pIC50, pKi: −log10 of the molar value.
Experiments:
[1] = target: Protein kinase C alpha type (Homo sapiens, UniProt P17252); format: cell-based; conditions: sf9;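 further: inhibition of PKCalpha kinase activity measured in an enzyme assay with histone as the phosphorylation substrate; in other assays of this panel Not Active means under 50% inhibition at 10 µM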
[2] = target: T1, Polyunsaturated fatty acid lipoxygenase ALOX15 (Oryctolagus cuniculus, UniProt P12530); assay: biochemical; format: tissue-based, Reticulocytes; conditions: for IC50: reticulocytes;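 on all read-outs here: inhibition of 15-lipoxygenase enzyme activity measured with linoleic acid as the substrate; in other assays of this panel Not Active means under 50% inhibition at 10 µM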
T1 sequence (P12530 whole entry): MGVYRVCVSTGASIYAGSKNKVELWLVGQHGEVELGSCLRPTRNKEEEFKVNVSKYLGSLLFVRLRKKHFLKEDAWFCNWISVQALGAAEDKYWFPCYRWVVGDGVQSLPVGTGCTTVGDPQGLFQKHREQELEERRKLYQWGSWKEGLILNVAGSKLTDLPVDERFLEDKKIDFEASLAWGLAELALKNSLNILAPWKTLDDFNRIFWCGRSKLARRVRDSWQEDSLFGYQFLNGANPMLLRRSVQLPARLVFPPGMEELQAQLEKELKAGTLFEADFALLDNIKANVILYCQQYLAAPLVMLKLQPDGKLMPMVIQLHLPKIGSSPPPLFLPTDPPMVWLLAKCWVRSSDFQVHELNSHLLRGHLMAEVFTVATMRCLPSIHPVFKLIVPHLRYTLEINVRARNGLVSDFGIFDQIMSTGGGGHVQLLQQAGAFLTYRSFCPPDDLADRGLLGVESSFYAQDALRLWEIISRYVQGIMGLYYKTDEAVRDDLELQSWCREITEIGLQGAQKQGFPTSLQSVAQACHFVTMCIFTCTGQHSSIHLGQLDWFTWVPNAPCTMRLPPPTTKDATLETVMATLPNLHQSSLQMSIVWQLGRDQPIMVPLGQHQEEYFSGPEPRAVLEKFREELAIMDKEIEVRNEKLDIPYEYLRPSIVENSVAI

Adenosine receptor A2a = Adenosine receptor A2a (Homo sapiens, UniProt P29274); assay: DRUGMATRIX: Adenosine A2A radioligand binding (ligand: […]); format: cell membranes, HEK293, Membrane; conditions: hek293; Not Active = under 50% inhibition at 10 µM
Adenosine receptor A2a, sequence (P29274 whole entry): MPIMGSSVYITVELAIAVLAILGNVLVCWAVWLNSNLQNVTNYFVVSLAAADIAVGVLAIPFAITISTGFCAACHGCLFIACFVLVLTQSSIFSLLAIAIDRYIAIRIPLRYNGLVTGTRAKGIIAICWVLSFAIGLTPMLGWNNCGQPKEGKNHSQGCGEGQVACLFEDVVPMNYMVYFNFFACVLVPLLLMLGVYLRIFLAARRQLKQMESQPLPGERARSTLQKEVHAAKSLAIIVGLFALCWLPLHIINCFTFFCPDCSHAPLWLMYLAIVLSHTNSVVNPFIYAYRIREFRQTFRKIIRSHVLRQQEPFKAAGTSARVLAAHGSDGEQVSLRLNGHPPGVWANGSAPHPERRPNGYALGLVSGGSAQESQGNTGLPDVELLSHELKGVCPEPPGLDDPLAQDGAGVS

[3] = target: T2, Alpha-1B adrenergic receptor (Rattus norvegicus, UniProt P15823); assay: DRUGMATRIX: Alpha-1B adrenergic receptor radioligand binding (ligand: prazosin); format: cell membranes, Wistar, Liver, Membrane; conditions: Not Active = under 50% inhibition at 10 µM; for pIC50: read-out: IC50; for pKi: read-out: Ki
T2 sequence (P15823 whole entry): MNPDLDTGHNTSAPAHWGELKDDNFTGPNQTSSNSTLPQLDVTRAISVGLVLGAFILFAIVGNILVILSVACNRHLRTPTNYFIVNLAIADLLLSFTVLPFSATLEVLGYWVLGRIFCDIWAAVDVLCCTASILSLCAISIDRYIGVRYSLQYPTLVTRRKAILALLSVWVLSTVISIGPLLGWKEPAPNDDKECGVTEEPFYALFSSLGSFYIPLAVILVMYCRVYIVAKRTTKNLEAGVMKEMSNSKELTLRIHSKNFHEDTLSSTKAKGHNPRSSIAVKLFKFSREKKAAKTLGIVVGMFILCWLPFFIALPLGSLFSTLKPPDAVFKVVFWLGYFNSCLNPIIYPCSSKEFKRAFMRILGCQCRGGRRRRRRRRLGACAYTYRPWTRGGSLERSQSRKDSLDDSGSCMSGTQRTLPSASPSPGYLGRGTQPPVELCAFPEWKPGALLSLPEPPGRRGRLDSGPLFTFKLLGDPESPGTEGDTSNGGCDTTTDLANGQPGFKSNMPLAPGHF

Caspase-1 = target: T3, Caspase-1 (Homo sapiens, UniProt P29466); design: species or system Escherichia coli;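 further: Caspase-1 enzyme inhibition assay with a peptide substrate; in other assays of this panel Not Active means under 50% inhibition at 10 µM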
T3 sequence (P29466 whole entry): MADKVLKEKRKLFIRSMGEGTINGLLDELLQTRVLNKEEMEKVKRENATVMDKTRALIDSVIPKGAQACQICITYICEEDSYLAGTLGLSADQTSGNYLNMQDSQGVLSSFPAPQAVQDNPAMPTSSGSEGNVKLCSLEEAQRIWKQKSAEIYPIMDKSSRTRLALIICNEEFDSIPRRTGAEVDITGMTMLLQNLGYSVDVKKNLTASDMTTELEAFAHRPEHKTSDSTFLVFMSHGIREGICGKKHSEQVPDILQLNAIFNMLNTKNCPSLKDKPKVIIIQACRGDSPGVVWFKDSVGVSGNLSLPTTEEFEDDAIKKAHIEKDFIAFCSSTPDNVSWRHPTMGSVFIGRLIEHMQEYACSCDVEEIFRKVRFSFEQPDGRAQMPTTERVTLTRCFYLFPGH

[4] = DRUGMATRIX: Phosphodiesterase PDE4 enzyme inhibition (substrate: [3H]cAMP + cAMP); conditions: u-937; Not Active = under 50% inhibition at 10 µM
[5] = target: T4, Neuropeptide Y receptor type 1 (Homo sapiens, UniProt P25929); format: cell membranes, Membrane; conditions: sk-n-mc; further: in other assays of this panel Not Active means under 50% inhibition at 10 µM
T4 sequence (P25929 whole entry): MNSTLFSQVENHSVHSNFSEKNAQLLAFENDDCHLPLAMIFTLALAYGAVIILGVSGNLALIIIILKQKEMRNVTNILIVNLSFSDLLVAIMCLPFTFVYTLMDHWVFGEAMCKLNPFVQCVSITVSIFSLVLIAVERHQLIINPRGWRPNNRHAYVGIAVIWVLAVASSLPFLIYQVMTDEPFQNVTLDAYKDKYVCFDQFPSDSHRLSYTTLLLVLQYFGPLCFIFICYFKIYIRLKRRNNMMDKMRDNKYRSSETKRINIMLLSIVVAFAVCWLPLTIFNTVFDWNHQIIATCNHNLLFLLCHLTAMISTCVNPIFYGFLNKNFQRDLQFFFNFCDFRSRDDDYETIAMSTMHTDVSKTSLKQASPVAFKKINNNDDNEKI

CN(C)[C@@H]1C(O)=C(C(N)=O)C(=O)[C@@]2(O)C(O)=C3C(=O)c4c(O)ccc(Cl)c4[C@@](C)(O)[C@H]3C[C@@H]12 [CHLORTETRACYCLINE]
Not Active: IC50 [1] | IC50 [2] | IC50 (Adenosine receptor A2a) | IC50 [3] | IC50 (Caspase-1) | IC50 [4] | Ki [4] | IC50 [5]

CN/C(=N\CCSCc1nc[nH]c1C)NC#N [CIMETIDINE]
Not Active: IC50 [1] | IC50 [2] | IC50 (Adenosine receptor A2a) | IC50 [3] | IC50 (Caspase-1) | IC50 [4] | Ki [4] | IC50 [5]

COc1cc(N)c(Cl)cc1C(=O)NC1CCN(CCCOc2ccc(F)cc2)CC1OC (stereo unspecified) [CISAPRIDE]
8.06: pKi [3]
Not Active: IC50 [1] | IC50 [2] | IC50 (Adenosine receptor A2a) | IC50 (Caspase-1) | IC50 [4] | Ki [4] | IC50 [5]
7.80: pIC50 [3]

CCC(=O)O[C@]1(C(=O)CCl)[C@@H](C)C[C@H]2[C@@H]3CCC4=CC(=O)C=C[C@]4(C)[C@@]3(F)[C@@H](O)C[C@@]21C [CLOBETASOL PROPIONATE]
Not Active: IC50 [1] | IC50 [2] | IC50 (Adenosine receptor A2a) | IC50 [3] | IC50 (Caspase-1) | IC50 [4] | Ki [4] | IC50 [5]

O=C1CN=C(c2ccccc2Cl)c2cc([N+](=O)[O-])ccc2N1 [CLONAZEPAM]
Not Active: IC50 [1] | IC50 [2] | IC50 (Adenosine receptor A2a) | IC50 [3] | IC50 (Caspase-1) | IC50 [4] | Ki [4] | IC50 [5]

Nc1ccn([C@@H]2O[C@H](CO)[C@@H](O)[C@@H]2O)c(=O)n1 [CYTARABINE]
Not Active: IC50 [1] | IC50 [2] | IC50 (Adenosine receptor A2a) | IC50 [3] | IC50 (Caspase-1) | IC50 [4] | Ki [4] | IC50 [5]

C[C@@H]1C[C@H]2[C@@H]3CCC4=CC(=O)C=C[C@]4(C)[C@@]3(F)[C@@H](O)C[C@]2(C)[C@H]1C(=O)CO [DESOXIMETASONE]
Not Active: IC50 [1] | IC50 [2] | IC50 (Adenosine receptor A2a) | IC50 [3] | IC50 (Caspase-1) | IC50 [4] | Ki [4] | IC50 [5]

C[C@@H]1C[C@H]2[C@@H]3CCC4=CC(=O)C=C[C@]4(C)[C@@]3(F)[C@@H](O)C[C@]2(C)[C@@]1(O)C(=O)CO [DEXAMETHASONE]
Not Active: IC50 [1] | IC50 [2] | IC50 (Adenosine receptor A2a) | IC50 [3] | IC50 (Caspase-1) | IC50 [4] | Ki [4] | IC50 [5]

CN(C)CC[C@@H](c1ccc(Cl)cc1)c1ccccn1 [DEXCHLORPHENIRAMINE]
4.81: pIC50 [3]
Not Active: IC50 [1] | IC50 [2] | IC50 (Adenosine receptor A2a) | IC50 (Caspase-1) | IC50 [4] | Ki [4] | IC50 [5]
5.06: pKi [3]

C[C@@H]1CC[C@@]2(OC1)O[C@H]1[C@@H](O)[C@H]3[C@@H]4CC[C@H]5C[C@@H](O[C@@H]6O[C@H](CO)[C@H](O[C@@H]7O[C@H](CO)C(O)[C@H](O[C@@H]8OC[C@@H](O)[C@H](O)[C@H]8O)[C@H]7O[C@@H]7O[C@H](CO)[C@H](O)[C@H](O[C@@H]8O[C@H](CO)[C@@H](O)[C@H](O)[C@H]8O)[C@H]7O)[C@H](O)[C@H]6O)[C@H](O)C[C@]5(C)[C@H]4CC[C@]3(C)[C@H]1[C@@H]2C (stereo partly specified) [DIGITONIN]
Not Active: IC50 [1] | IC50 [2] | IC50 (Adenosine receptor A2a) | IC50 [3] | IC50 (Caspase-1) | IC50 [4] | Ki [4] | IC50 [5]

OC(CCCN1CCCCC1)(c1ccccc1)c1ccccc1 [DIPHENIDOL]
5.58: pKi [3]
5.32: pIC50 [3]
Not Active: IC50 [1] | IC50 [2] | IC50 (Adenosine receptor A2a) | IC50 (Caspase-1) | IC50 [4] | Ki [4] | IC50 [5]

C[C@H]1O[C@@H](n2cc(F)c(=O)[nH]c2=O)[C@H](O)[C@@H]1O [DOXIFLURIDINE]
Not Active: IC50 [1] | IC50 [2] | IC50 (Adenosine receptor A2a) | IC50 [3] | IC50 (Caspase-1) | IC50 [4] | Ki [4] | IC50 [5]

Cn1c(=O)c2c(ncn2CC(O)CO)n(C)c1=O (stereo unspecified) [DYPHYLLINE]
Not Active: IC50 [1] | IC50 [2] | IC50 (Adenosine receptor A2a) | IC50 [3] | IC50 (Caspase-1) | IC50 [4] | Ki [4] | IC50 [5]

CC[C@H]1CN2CCc3cc(OC)c(OC)cc3[C@@H]2C[C@@H]1C[C@H]1NCCc2cc(OC)c(OC)cc21 [EMETINE]
Not Active: IC50 [1] | IC50 [2] | IC50 (Adenosine receptor A2a) | IC50 (Caspase-1) | IC50 [4] | Ki [4] | IC50 [5]
5.71: pIC50 [3]
5.97: pKi [3]

C[C@@H](CO)NC(=O)[C@@H]1C=C2c3cccc4[nH]cc(c34)C[C@H]2N(C)C1 [ERGONOVINE]
Not Active: IC50 [1] | IC50 [2] | IC50 (Adenosine receptor A2a) | IC50 [3] | IC50 (Caspase-1) | IC50 [4] | Ki [4] | IC50 [5]

COC(=O)CCc1ccc(OCC(O)CNC(C)C)cc1 (stereo unspecified) [ESMOLOL]
Not Active: IC50 [1] | IC50 [2] | IC50 (Adenosine receptor A2a) | IC50 [3] | IC50 (Caspase-1) | IC50 [4] | Ki [4] | IC50 [5]

CCC1(C)CC(=O)NC1=O (stereo unspecified) [ETHOSUXIMIDE]
Not Active: IC50 [1] | IC50 [2] | IC50 (Adenosine receptor A2a) | IC50 [3] | IC50 (Caspase-1) | IC50 [4] | Ki [4] | IC50 [5]

C#C[C@]1(OC(C)=O)CC[C@H]2[C@@H]3CCC4=C[C@@H](OC(C)=O)CC[C@@H]4[C@H]3CC[C@@]21C [ETHYNODIOL DIACETATE]
Not Active: IC50 [1] | IC50 [2] | IC50 (Adenosine receptor A2a) | IC50 [3] | IC50 (Caspase-1) | IC50 [4] | Ki [4] | IC50 [5]

COc1cc([C@@H]2c3cc4c(cc3[C@@H](O[C@@H]3O[C@@H]5CO[C@@H](C)O[C@H]5[C@H](O)[C@H]3O)[C@H]3COC(=O)[C@H]23)OCO4)cc(OC)c1O [ETOPOSIDE]
Not Active: IC50 [1] | IC50 (Adenosine receptor A2a) | IC50 [3] | IC50 (Caspase-1) | IC50 [4] | Ki [4] | IC50 [5]
5.50: pIC50 ([2]; read-out: IC50)

— ChEMBL document CHEMBL1909046, “DrugMatrix in vitro pharmacology data”
